Results: patent US20130324606A1, “Ester Derivatives of Bimatoprost Compositions and Methods” (ALLERGAN, INC., priority 2011, published 2013)

What was measured:
[1] = Pharmacokinetic assessment of mouse hair regrowth model; format: in vivo; settings: mice, 0.03% dermal daily ~60 uL, all measured time points, LC/MS-MS
Experimental: Female C57BL/6J mice (n=2) were assayed per time point per treatment group. Treatment groups: (1) vehicle; (2) 0.03% Cmpd IVa; (3) 0.03% Cmpd IIIb; (4) 0.03% Cmpd IVb; (5) 0.03% bimatoprost. Treatment dosing: dermal daily application of ˜60 uL test compound solution. Blood and skin pharmacokinetic time points were obtained at day 1 (1, 4, 8 and 24-hrs post-dose); day 2 (24-hrs post-dose); day 14 (24-hrs post-dose); and day 42 (28 days post day 14 dose). Bioanalysis employed LC/MS-MS.

[2] = Partitioning in artificial sebum; format: physicochemical
Experimental: Compounds bimatoprost, Cmpd IVa, and Cmpd IIIb were added to aqueous solution (1 mL, 2-20 ug/mL), with and without 1-20 mg artificial sebum. Samples were shaken for 16 hr at 37° C. Samples were then centrifuged (8000 RPM) for 15 min at room temperature, prior to collection of the aqueous solution. Samples were analyzed for concentration of compound without artificial sebum (i.e., Co) and with artificial sebum (i.e., Ci) by mass spectroscopy. Artificial sebum and water partition coefficient (Ksebum) was expressed as the concentration of drug in 1 g of artificial sebum divided by the concentration of drug in 1 g of aqueous solution, and was calculated as Ksebum=(Co−Ci)Waqueous/(Ci×Wsebum) (Eqn. 1), where W represents weight.
Artificial sebum was prepared as follows: 15% (w/w) squalene, 15% spermaceti, 10% coconut oil, 1.5% oleic acid, 5% palmitic acid, 2.4% cholesterol oleate, 10% paraffin wax, 10% olive oil, 25% cottonseed oil, 5% palmitoleic acid, 1.2% cholesterol. The melting point of the semi-liquid was 37° C.

[3] = system: human hair dermal papilla cells, HHDPC; assay: Cellular dielectric spectroscopy (CDS) in dermal papilla cells; format: cell-based
Experimental: Cellular dielectric spectroscopy (CDS) was conducted in an assay of dermal papilla cells (i.e., human hair dermal papilla cells, HHDPC) with bimatoprost and Cmpds IVc and IVb. As known in the art, CDS is a real-time, non-invasive, label-free, high-throughput, cell-based assay which measures electrical cell impedance. Without wishing to be bound by any theory, it is believed that GPCR activation induces changes in cell morphology, cell-cell interaction, and cell adherence which manifest as a change in cell impedance.

C57Black/6J mice = assay: Piliation (hair regrowth) studies in mice; format: in vivo; settings: 0.03%, topical QD 14 days, vehicle 50% propylene glycol, 30% ethanol, 20% water
Experimental: C57Black/6J, 7-week old female mice (n=10) were employed in piliation studies. Dorsal hair was shaved (area ˜2 cm×4 cm). Dosing of active agent was once per day (QD) by topical administration for 14 days. Observations were conducted for 42-days to determine onset of new hair growth and day of hair growth completion. Compounds were formulated as either a) 50% propylene glycol, 30% ethanol, 20% water, or b) the formulation of Formulation A described above. The experiments reported for FIGS. 4A-4B, 5A-5B, 6A-6B, 8A-8B, and 9A-9B were conducted using a vehicle with formulation of 50% propylene glycol, 30% ethanol, 20% water. The experiments reported for FIGS. 7A-7B were conducted using a vehicle of Formulation A described above.
For each of FIGS. 4A, 5A, 6A, 7A, 8A and 9A, the histograms depict the day of onset of hair growth. For each of FIGS. 4B, 5B, 6B, 7B, 8B and 9B, the histograms depict the day achieving full hair growth.

[4] = Compound distribution in mouse skin by MALDI-MS imaging; format: in vivo; settings: topical dermal, once daily 3 days, 4 hr after day-3 dosing
Experimental: In order to determine the penetration, accumulation and/or differential distribution of bimatoprost and compounds disclosed herein upon dermal administration, MALDI-MS (matrix assisted laser desorption ionization mass spectroscopy) imaging was conducted on explanted samples of mouse skin after topical dermal administration.
MALDI-MS imaging was conducted on mouse skin strips after administration of bimatoprost or compound disclosed herein once daily for 3 days. Samples of mouse skin were recovered 4 hr after day-3 dosing of compound. Dermal administration was conducted with vehicle, 0.03% bimatoprost, 3% bimatoprost, 0.03% Cmpd IVa, and 3% Cmpd IVa.
FIG. 16A depicts a typical explanted sample of mouse skin for these studies, wherein Cmpd IVa was applied via dermal administration. FIG. 16B depicts the result of MALDI-MS imaging. The intensity of each pixel within FIG. 16B reflects the concentration of Cmpd IVa at the corresponding point in the image depicted in FIG. 16A. FIG. 16C depicts a representative mass spectrum, corresponding to the region of FIG. 16B indicated by the white circle within FIG. 16B. Accordingly, each pixel of the image of FIG. 16B has an associated mass spectrum, providing the amounts of bimatoprost or other administered compound or metabolite thereof.

mouse skin = assay: Pathology assessment of mouse hair regrowth model; format: in vivo, mice; settings: histology, 0.03% active, vehicle control still in growth phase
Description: Histological samples from test subjects employed in the studies described in Example 12 were obtained for pathology assessment.

[5] = In vitro human skin penetration (Franz diffusion chamber); format: in vitro ADME; settings: 0.03% in Formulation A, dosed compound
Description: Test material: Dermatomed ex vivo human cadaver posterior trunk skin on 1.0 cm^2 Franz diffusion chamber as known in the art. Test size: 3 skin donors (obtained from New York Firefighters Skin Bank), 3 replicates per donor per formulation. Test formulations: 0.03% active agent (Cmpd IVa, Cmpd IIIb, Cmpd IVb) in Formulation A; control formulation: bimatoprost at 0.03% in Formulation A. Dosing regimen: receptor fluid at 2, 4, 24, and 48 hrs; SC/epidermis and dermis at 48 hrs. Sample analysis: LC/MS-MS to detect bimatoprost and Cmpds IVa, IIIb and IVb.

level in the systemic circulation [1]: most undetectable
phase in which the majority of compound remains ([2]; artificial sebum / aqueous solution): remain in the aqueous phase
Ave. Ksebum (artificial sebum and water partition coefficient) ([2]; n = 4, 16 hr at 37° C.): 3.6
EC50 ([3]; cell impedance, tested range 10^−4 to 10^−13 mol/L): 3.0 to 6.3×10^−7 mol/L
levels of bimatoprost in skin after 3.0% bimatoprost versus after 3.0% Cmpd IVa [4]: much higher
Percentage Dose Applied, Receptor Chamber Solution, Prodrug ([5]; Franz chamber): 1.1 Percentage Dose Applied
Percentage Dose Applied, Upper ⅓ Dermis, Prodrug ([5]; dermis at 48 hrs): 7.0 Percentage Dose Applied
SMILES: CCNC(=O)CCC/C=C\C[C@@H]1[C@@H](/C=C/[C@@H](O)CCc2ccccc2)[C@H](O)C[C@@H]1O [bimatoprost, (Z)-7-((1R,2R,3R,5S)-3,5-dihydroxy-2-((S,E)-3-hydroxy-5-phenylpent-1-enyl)cyclopentyl)-N-ethylhept-5-enamide]
change in cell impedance [3]: characteristic change in cell impedance
days for hair growth to commence (day of onset of hair growth) (C57Black/6J mice; FIG. 6A): 22 days
days for full hair growth to be achieved (C57Black/6J mice; FIG. 6B): 44 days
hair cycle phase at day-42 (mouse skin): returned to the resting phase
